Laboratory results from ChEMBL document CHEMBL1139763, “Pyrrolidines as potent functional agonists of the human melanocortin-4 receptor” (Bioorg Med Chem Lett, 2007).

Assays:
[1] = target: T1, Melanocortin receptor 4 (Homo sapiens, UniProt P32245); test: Displacement of [125I]NDP-MSH from human MC4R expressed in HEK293 cells; type: cell-based
[2] = target: T1, Melanocortin receptor 4; test: Agonist activity at human MC4R expressed in HEK293 cells assessed as cAMP accumulation; type: functional, cell-based
[3] = target: T1, Melanocortin receptor 4; test: Intrinsic activity at human MC4R expressed in HEK293 cells assessed as cAMP accumulation relative to alphaMSH; type: functional, cell-based

T1 sequence (P32245 whole entry): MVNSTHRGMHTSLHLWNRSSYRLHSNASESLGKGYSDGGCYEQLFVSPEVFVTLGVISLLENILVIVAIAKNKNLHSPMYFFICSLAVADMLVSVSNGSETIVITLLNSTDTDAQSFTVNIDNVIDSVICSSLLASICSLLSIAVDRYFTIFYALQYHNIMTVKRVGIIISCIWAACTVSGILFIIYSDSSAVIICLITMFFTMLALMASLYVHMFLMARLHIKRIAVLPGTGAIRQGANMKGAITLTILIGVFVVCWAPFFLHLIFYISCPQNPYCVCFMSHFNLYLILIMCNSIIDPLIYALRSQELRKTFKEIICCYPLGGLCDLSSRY

Row | Structure (SMILES) | Ki [1] [nM] | EC50 [2] [nM] | Intrinsic activity [3] [%]
1 | CC(C)CN(Cc1ccccc1N1CCN(C(=O)[C@@H]2CN(C(C)C)C[C@H]2c2ccc(Cl)cc2)CC1)C(=O)CCN | 450 | – | –
2 | CC(C)N1C[C@@H](C(=O)N2CCN(c3ccccc3CN(C)C)CC2)[C@H](c2ccc(Cl)cc2)C1 | 1200 | – | –
3 | CC(C)N1C[C@@H](C(=O)N2CCN(c3ccccc3CN3CCN(C)CC3)CC2)[C@H](c2ccc(Cl)cc2)C1 | 840 | – | –
4 | CC(C)N1C[C@@H](C(=O)N2CCN(c3ccccc3Cn3cncn3)CC2)[C@H](c2ccc(Cl)cc2)C1 | 320 | – | –
5 | CC(C)N1C[C@@H](C(=O)N2CCN(c3ccccc3CN)CC2)[C@H](c2ccc(Cl)cc2)C1 | 1100 | – | –
6 | CC(C)N1C[C@@H](C(=O)N2CCN(c3ccccc3Cn3cnnc3)CC2)[C@H](c2ccc(Cl)cc2)C1 | 580 | – | –
7 | CC(C)N1C[C@@H](C(=O)N2CCN(c3ccccc3CN3CCCC3)CC2)[C@H](c2ccc(Cl)cc2)C1 | 550 | – | –
8 | CNCCNCc1ccccc1N1CCN(C(=O)[C@@H]2CN(C(C)C)C[C@H]2c2ccc(Cl)cc2)CC1 | 270 | – | –
9 | CC(C)N1C[C@@H](C(=O)N2CCN(c3ccccc3Cn3ccnn3)CC2)[C@H](c2ccc(Cl)cc2)C1 | 420 | – | –
10 | CC(C)CN(Cc1ccccc1N1CCN(C(=O)[C@@H]2CN(C(C)C)C[C@H]2c2ccc(Cl)cc2)CC1)CC(C)C | 1100 | – | –
11 | CC(C)N1C[C@@H](C(=O)N2CCN(c3ccccc3CN3CCCCC3)CC2)[C@H](c2ccc(Cl)cc2)C1 | 950 | – | –
12 | CC(C)N1C[C@@H](C(=O)N2CCN(c3ccccc3CNc3ccccc3N)CC2)[C@H](c2ccc(Cl)cc2)C1 | 1400 | – | –
13 | CC(C)N1C[C@@H](C(=O)N2CCN(c3ccccc3CNS(C)(=O)=O)CC2)[C@H](c2ccc(Cl)cc2)C1 | 1700 | – | –
14 | CC(C)N1C[C@@H](C(=O)N2CCN(c3ccccc3CNc3cccnc3)CC2)[C@H](c2ccc(Cl)cc2)C1 | 1600 | – | –
15 | COc1ccccc1N1CCN(C(=O)[C@@H]2CN(C(C)C)C[C@H]2c2ccc(Cl)cc2)CC1 | 520 | – | –
16 | COCCN(C)Cc1ccccc1N1CCN(C(=O)[C@@H]2CN(C(C)C)C[C@H]2c2ccc(Cl)cc2)CC1 | 320 | – | –
17 | CC(C)N1C[C@@H](C(=O)N2CCN(c3ccccc3C=O)CC2)[C@H](c2ccc(Cl)cc2)C1 | 1150 | – | –
18 | CC(C)N1C[C@@H](C(=O)N2CCN(c3ccccc3C#N)CC2)[C@H](c2ccc(Cl)cc2)C1 | 4800 | – | –
19 | CC(C)N1C[C@@H](C(=O)N2CCN(c3ccccc3Cn3cccn3)CC2)[C@H](c2ccc(Cl)cc2)C1 | 490 | – | –
20 | CC(C)CNCc1ccccc1N1CCN(C(=O)[C@@H]2CN(C(C)C)C[C@H]2c2ccc(Cl)cc2)CC1 | 510 | – | –
21 | CCN(CC)Cc1ccccc1N1CCN(C(=O)[C@@H]2CN(C(C)C)C[C@H]2c2ccc(Cl)cc2)CC1 | 1200 | – | –
22 | CC(C)N1C[C@@H](C(=O)N2CCN(c3ccccc3CN3CCNCC3)CC2)[C@H](c2ccc(Cl)cc2)C1 | 360 | – | –
23 | CC(C)N1C[C@@H](C(=O)N2CCN(c3ccccc3CNC3CNC3)CC2)[C@H](c2ccc(Cl)cc2)C1 | 520 | – | –
24 | Cc1nccn1Cc1ccccc1N1CCN(C(=O)[C@@H]2CN(C(C)C)C[C@H]2c2ccc(Cl)cc2)CC1 | 280 | – | –

Compounds with a lower Ki [1], results first:

Row | Ki [1] [nM] | EC50 [2] [nM] | Intrinsic activity [3] [%] | Structure (SMILES)
25 | 250 | – | – | Cc1cncn1Cc1ccccc1N1CCN(C(=O)[C@@H]2CN(C(C)C)C[C@H]2c2ccc(Cl)cc2)CC1
26 | 240 | – | – | CC(C)N1C[C@@H](C(=O)N2CCN(c3ccccc3CN(C)C3CNC3)CC2)[C@H](c2ccc(Cl)cc2)C1
27 | 230 | – | – | CC(C)N1C[C@@H](C(=O)N2CCN(c3ccccc3CNCCN)CC2)[C@H](c2ccc(Cl)cc2)C1
28 | 220 | 320 | 52 | CC(C)N1C[C@@H](C(=O)N2CCN(c3ccccc3Cn3ccnc3)CC2)[C@H](c2ccc(Cl)cc2)C1
29 | 190 | – | – | CC(C)N1C[C@@H](C(=O)N2CCN(c3ccccc3CNC3CCNCC3)CC2)[C@H](c2ccc(Cl)cc2)C1
30 | 92 | 390 | 40 | CC(C)N1C[C@@H](C(=O)N2CCN(c3ccccc3CN3CCC(N)CC3)CC2)[C@H](c2ccc(Cl)cc2)C1
31 | 87 | 450 | 96 | CC(C)C[C@H](NS(C)(=O)=O)c1cc(C(F)(F)F)ccc1N1CCN(C(=O)[C@@H]2CN(C(C)C)C[C@H]2c2ccc(Cl)cc2)CC1
32 | 47 | – | 35 | CC(=O)N[C@H](c1cc(C)ccc1N1CCN(C(=O)[C@@H]2CN(C(C)C)C[C@H]2c2ccc(Cl)cc2)CC1)C(C)C
33 | 47 | 210 | 104 | CC(C)C[C@H](NC(=O)[C@H](C)N)c1cc(C(F)(F)F)ccc1N1CCN(C(=O)[C@@H]2CN(C(C)C)C[C@H]2c2ccc(Cl)cc2)CC1
34 | 26 | 1100 | 94 | CC(C)C[C@H](N)c1cc(C(F)(F)F)ccc1N1CCN(C(=O)[C@@H]2CN(C(C)C)C[C@H]2c2ccc(Cl)cc2)CC1
35 | 21 | 270 | 68 | CC(C)[C@H](N)c1cccc(F)c1N1CCN(C(=O)[C@@H]2CN(C(C)C)C[C@H]2c2ccc(Cl)cc2)CC1
36 | 18 | 6.6 | 80 | CC(C)C[C@H](NC(=O)C1CNC1)c1cc(C(F)(F)F)ccc1N1CCN(C(=O)[C@@H]2CN(C(C)C)C[C@H]2c2ccc(Cl)cc2)CC1
37 | 17.3 | 52 | 99 | CC(C)C[C@H](NC(=O)CN(C)C)c1cc(C(F)(F)F)ccc1N1CCN(C(=O)[C@@H]2CN(C(C)C)C[C@H]2c2ccc(Cl)cc2)CC1
38 | 13 | 6.9 | 100 | CC(C)[C@H](NC(=O)CCN)c1cccc(F)c1N1CCN(C(=O)[C@@H]2CN(C(C)C)C[C@H]2c2ccc(Cl)cc2)CC1
39 | 13 | – | 44 | Cc1ccc(N2CCN(C(=O)[C@@H]3CN(C(C)C)C[C@H]3c3ccc(Cl)cc3)CC2)c([C@H](C(C)C)N(C)C)c1
40 | 12 | 105 | 99 | Cc1ccc(N2CCN(C(=O)[C@@H]3CN(C(C)C)C[C@H]3c3ccc(Cl)cc3)CC2)c([C@@H](N)C(C)C)c1
41 | 11 | 16 | 114 | CNCC(=O)N[C@H](c1cccc(F)c1N1CCN(C(=O)[C@@H]2CN(C(C)C)C[C@H]2c2ccc(Cl)cc2)CC1)C(C)C
42 | 10 | 91 | 76 | CC(C)C[C@H](NC(=O)CCN(C)C)c1cc(C(F)(F)F)ccc1N1CCN(C(=O)[C@@H]2CN(C(C)C)C[C@H]2c2ccc(Cl)cc2)CC1
43 | 8.9 | 44 | 115 | CC(C)C[C@H](NC(=O)CN)c1cc(C(F)(F)F)ccc1N1CCN(C(=O)[C@@H]2CN(C(C)C)C[C@H]2c2ccc(Cl)cc2)CC1
44 | 8.7 | 4.6 | 95 | CC(C)C[C@H](NC(=O)CCN)c1cc(C(F)(F)F)ccc1N1CCN(C(=O)[C@@H]2CN(C(C)C)C[C@H]2c2ccc(Cl)cc2)CC1
45 | 7.7 | 67 | 63 | CNCC(=O)N[C@@H](CC(C)C)c1cc(C(F)(F)F)ccc1N1CCN(C(=O)[C@@H]2CN(C(C)C)C[C@H]2c2ccc(Cl)cc2)CC1
46 | 7.1 | 170 | 100 | Cc1ccc(N2CCN(C(=O)[C@@H]3CN(C(C)C)C[C@H]3c3ccc(Cl)cc3)CC2)c([C@@H](NC(=O)CN(C)C)C(C)C)c1
47 | 4.9 | 31 | 103 | CC(C)C[C@H](NC(=O)[C@@H](C)N)c1cc(C(F)(F)F)ccc1N1CCN(C(=O)[C@@H]2CN(C(C)C)C[C@H]2c2ccc(Cl)cc2)CC1
48 | 4.7 | 16 | 102 | Cc1ccc(N2CCN(C(=O)[C@@H]3CN(C(C)C)C[C@H]3c3ccc(Cl)cc3)CC2)c([C@@H](NC(=O)CCN(C)C)C(C)C)c1
49 | 4.4 | 9 | 70 | CC(C)[C@H](NC(=O)[C@@H](C)N)c1cccc(F)c1N1CCN(C(=O)[C@@H]2CN(C(C)C)C[C@H]2c2ccc(Cl)cc2)CC1
